Assay results reported in patent US20230025976A1, “PRMT5 Inhibitor for Use In A Method of Treating Psoriasis and Other Autoimmune Conditions” (Pfizer Inc., priority 2020, published 2023).

Test system: psoriasis patient
Assay: Treatment of a psoriasis patient (case report, Example 1)
Format: in vivo, human
Settings: for Psoriasis symptoms, skin, front of torso / Psoriasis symptoms, skin, back of torso: psoriasis patient
Description: They had chronic psoriatic lesions on the front and back sides of their torso. The lesions covered 75% of their body, and the patient had difficulty controlling these symptoms despite having used several different medications in the past. The psoriasis symptoms worsened after chemotherapy. The patient was treated with 1 mg of (1S,2S,3S,5R)-3-((6-(difluoromethyl)-5-fluoro-1,2,3,4-tetrahydroisoquinolin-8-yl) oxy)-5-(4-methyl-7H-pyrrolo[2,3-d]pyrimidin-7-yl)cyclopentane-1,2-diol orally twice a day, for four months. During the treatment period the patient was questioned about other medical conditions, if any, they were then experiencing. […] The patient discontinued treatment after four months, for reasons unrelated to their psoriasis. […] Photos taken after two and six weeks of treatment document the clearing of psoriasis symptoms. FIGS. 1 and 2 depict said clearing of psoriasis symptoms.

## Cc1ncnc2c1ccn2[C@@H]1C[C@H](Oc2cc(C(F)F)c(F)c3c2CNCC3)[C@@H](O)[C@H]1O [(1S,2S,3S,5R)-3-((6-(difluoromethyl)-5-fluoro-1,2,3,4-tetrahydroisoquinolin-8-yl)oxy)-5-(4-methyl-7H-pyrrolo [2,3-d]pyrimidin-7-yl)cyclopentane-1,2-diol]
1 mg orally twice a day for four months, one month after cessation of treatment
  Psoriatic skin lesions after cessation of treatment: remained in remission
person, severe psoriasis, 1 mg orally twice a day, following six weeks treatment
  Psoriatic skin lesions: significant clearing
person, severe psoriasis, 1 mg orally twice a day, within one week of initiating treatment
  Psoriatic skin lesions and related itching, patient-reported: improvement in their psoriatic skin lesions and a lessening of related itching
1 mg twice daily for six weeks, FIG. 1B
  Psoriasis symptoms, skin, front of torso: mild
1 mg twice daily for six weeks, FIG. 2B
  Psoriasis symptoms, skin, back of torso: mild
1 mg twice daily for two weeks, FIG. 1A
  Psoriasis symptoms, skin, front of torso: moderate
1 mg twice daily for two weeks, FIG. 2A
  Psoriasis symptoms, skin, back of torso: moderate
